From patent US20250134849A1, “PHARMACEUTICAL COMPOSITION FOR PREVENTING OR TREATING OCULAR DISEASE COMPRISING ENAVOGLIFLOZIN” (DAEWOONG THERAPEUTICS INC., priority 2023, published 2025)

Tested on: Macular Degeneration Animal Model
Assay: Laser-induced macular degeneration animal model, fundus fluorescein angiography
Assay type: in vivo, Chinchilla rabbits
Details: intravitreal injection 2000 μg, n=5
Description: Chinchilla rabbits (n=24, male) were raised at a temperature of 23±3° C., relative humidity of 55±15%, ventilation frequency of 10 to 20 times/hr, lighting time of 12 hours, and illuminance of 150 to 300 Lux. The environmental conditions such as temperature/humidity of the animal room, ventilation frequency and illuminance were measured regularly during the raising period. During the acclimation, administration, and observation periods, the rabbits were raised in a stainless-steel breeding box (W500×L800×H500 mm) at 1 animal per breeding box. The breeding boxes were cleaned every day and water bottles were exchanged every day. […]
On the 7th and 14th days after the start of administration in each group, a mydriatic agent (Mydriacyl® Eye Drops 1%) was instilled into the right eye of the rabbits, followed by anesthetizing. […] The efficacies were evaluated through retinal fundus fluorescein angiography. It was confirmed that the fluorescence intensity levels on days 7 and 14 in all macular degeneration-induced groups were higher than those in the normal control groups, G5 and G6 (p<0.001 or p<0.05).
The average fluorescence intensities of the vehicle-administered groups (G7 and G8) were set to 100% and the relative levels (%) of the fluorescence intensities measured in each animal were analyzed. […]

Aflibercept [Comparative Example 2]
Fluorescence intensity at Day 7 (%), Mean (day 7, relative to vehicle group G7 = 100%): 93.345%
Fluorescence intensity at Day 14 (%), Mean (day 14, relative to vehicle group G8 = 100%): 69.403%
